In PubChem BioAssay AID463203 (Broad Institute, 2010):
The source made the active and inactive calls.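 How the source made its calls: active means more than half of replicate measurements showing over 20% loss of kinase signal relative to plate controls; inconclusive means some but at most half of replicates over 20% loss; inactive means no replicate over 20% signal loss.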

Target: Glycogen synthase kinase-3 alpha (Homo sapiens) (UniProt P49840)
Assay: concentration-response blocking of human GSK3A – biochemical, luminescence, cell-free homogeneous, retest, dose response (AID 463203)
Conditions: GSK-3 alpha enzyme, ADP-Glo luminescence, 60 min

Chain of Glycogen synthase kinase-3 alpha (Homo sapiens) (P49840 whole entry, looked up): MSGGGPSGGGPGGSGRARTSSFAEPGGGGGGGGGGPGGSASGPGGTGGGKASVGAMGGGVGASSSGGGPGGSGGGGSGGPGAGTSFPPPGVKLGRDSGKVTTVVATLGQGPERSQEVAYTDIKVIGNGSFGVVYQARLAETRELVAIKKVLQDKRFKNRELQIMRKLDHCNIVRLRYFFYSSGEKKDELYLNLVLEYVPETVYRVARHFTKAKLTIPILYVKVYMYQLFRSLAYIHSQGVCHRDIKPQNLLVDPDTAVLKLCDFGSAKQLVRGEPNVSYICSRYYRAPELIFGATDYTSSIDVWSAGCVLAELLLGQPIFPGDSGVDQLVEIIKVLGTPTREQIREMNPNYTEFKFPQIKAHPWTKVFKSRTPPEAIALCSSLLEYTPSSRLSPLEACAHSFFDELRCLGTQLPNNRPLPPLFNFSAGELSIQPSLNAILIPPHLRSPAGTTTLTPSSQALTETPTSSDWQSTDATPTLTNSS

| Structure (SMILES) | AC50 |
| --- | --- |
| CCN(CC)CCCNc1ncnc2scc(-c3ccc(F)cc3)c12 | > 30 µM (inactive) |
| Cc1sc2ncnc(NCCCN3CCCC3=O)c2c1C | 21.5 µM |
| COc1cccc(C2CC(=O)N3CN(c4ccccc4F)CSC3=C2C#N)c1 (configuration not stated) | > 30 µM (inactive) |
| CN1/C(=C\C=C2/SC(=S)NC2=O)C(C)(C)c2ccccc21 | 12.7 µM |
| CC1=C(C(=O)Nc2cccc(F)c2)C(c2ccsc2)C2=C(CC(C)(C)CC2=O)N1 (configuration not stated) | > 30 µM (inactive) |
| COc1cc(/C=C2\S/C(=N/S(=O)(=O)Cc3ccccc3)NC2=O)c([N+](=O)[O-])cc1OC | > 30 µM (inactive) |
| CCc1ccc(C2CC(c3ccc(Cl)cc3)n3nc(N)nc3N2)cc1 (configuration not stated) | > 30 µM (inactive) |
| CC(C)c1ccc(C2CC(=O)N3CN(Cc4ccco4)CSC3=C2C#N)cc1 (configuration not stated) | 21 µM |
| COC(=O)C1=C(C)N(C)C(=O)/C1=C\c1ccco1 | > 30 µM (inactive) |
| COc1ccc(C(=O)Nc2nc(C)cc(C)n2)cc1 | > 30 µM (inactive) |
| CC(CC(=O)Nc1ncc([N+](=O)[O-])s1)c1ccccc1 (configuration not stated) | 5.94 µM |
| COc1cccc(N(CC(=O)Nc2cccc(C(C)=O)c2)S(C)(=O)=O)c1 | > 30 µM (inactive) |
| O=C(Nc1ccccc1C(=O)NC1CCCCC1)c1ccccc1 | > 30 µM (inactive) |
| Clc1ccccc1C1=Nn2c(nnc2-c2ccco2)SC1 | 30.4 µM |
| CCOc1cc(/C=N/Nc2ncnc(Cl)c2N)ccc1O | 29.6 µM |
| Fc1cccc(/C=N/Nc2nccnc2Cl)c1 | > 30 µM (inactive) |
| CC(/C=N/NC(=O)CSc1nc2ccccc2n1C)=C\c1ccco1 | > 30 µM (inactive) |
| CCCCN(CC)C(=O)c1oc2ccc(S(=O)(=O)N3CCCC3)cc2c1C | > 30 µM (inactive) |
| Cc1ccc2oc(=O)c3cnn(CC(=O)N4CCc5ccccc5C4)c3c2c1 | > 30 µM (inactive) |

| Structure (SMILES) | AC50 |
| --- | --- |
| COCCCNC(=O)C(=O)NC1CCCCCC1 | > 30 µM (inactive) |
| CCc1cc(C(=O)c2ccc(OC)cc2)c(NC(=O)COCC(=O)O)s1 | > 30 µM (inactive) |
| C[C@H](CO)N1C[C@H](C)[C@@H](CN(C)S(=O)(=O)c2ccc(F)cc2)Oc2c(NC(=O)Cc3ccccc3)cccc2C1=O | > 30 µM (inactive) |
| COCCCNc1nc(N)c([N+](=O)[O-])c(N2CCCCCC2)n1 | 9.97 µM |
| Cc1onc(-c2ccccc2)c1C(=O)NCCN1CCOCC1 | > 30 µM (inactive) |
| c1ccc2[nH]c(C3CC3)nc2c1 | > 30 µM (inactive) |
| CCn1c(SCc2nc3sc(C(=O)O)c(C)c3c(=O)[nH]2)nc2ccccc21 | 10.8 µM |
| Cc1cc(N2CCN(c3ccccc3)CC2)n2c(n1)nc1ccccc12 | 4.33 µM |
| CS(=O)(=O)Nc1ccc(-c2cc(/C=C3\SC(N)=NC3=O)c[nH]c2=O)cc1 | 7.53 µM |
| Cc1onc(-c2c(F)cccc2Cl)c1C(=O)OCC(=O)Nc1c(C)n(C)n(-c2ccccc2)c1=O | > 30 µM (inactive) |
| CCN1CCN(Cc2c(O)ccc3c2O/C(=C\C=C\c2ccccc2OC)C3=O)CC1 | > 30 µM (inactive) |
| C=CCn1c(O)c(/C(C)=N/N2CCCCCC2)c(=O)[nH]c1=O | 28.8 µM |
| Cc1cccc(C(=O)Nc2cccc(-c3cnc4ccccc4n3)c2)c1 | > 30 µM (inactive) |
| c1ccc2c(c1)c1ccccc1n1c(-c3ccc4c(c3)OCO4)nnc21 | > 30 µM (inactive) |
| O=C1/C(=C/c2cccc([N+](=O)[O-])c2)N2CCC1CC2 | > 30 µM (inactive) |
| Cc1cnc(NC(=O)C2CC(=O)N(c3ccc4c(c3)OCCO4)C2)s1 (configuration not stated) | > 30 µM (inactive) |
| COc1ccc(/C=N/NC(=O)c2nnn(-c3nonc3N)c2-c2cccs2)cc1OC | 1.41 µM |
| CN(C)C(=O)Oc1cccc2c(OC(=O)N(C)C)cccc12 | > 30 µM (inactive) |
